B1: Thermolysin: enzyme used for decellularization; attacks the bulbous phemphigoid antigen in the hemidesmosome (protein, UniProt P00800 233-548, looked up)
Thermolysin: ITGTSTVGVGRGVLGDQKNINTTYSTYYYLQDNTRGNGIFTYDAKYRTTLPGSLWADADNQFFASYDAPAVDAHYYAGVTYDYYKNVHNRLSYDGNNAAIRSSVHYSQGYNNAFWNGSQMVYGDGDGQTFIPLSGGIDVVAHELTHAVTDYTAGLIYQNESGAINEAISDIFGTLVEFYANKNPDWEIGEDVYTPGISGDSLRSMSDPAKYGDPDHYSKRYTGTQDNGGVHINSGIINKAAYLISQGGTHYGVSVVGIGRDKLGKIFYRALTQYLTPTSNFSQLRAAAVQSATDLYGSTSQEVASVKQAFDAVGVK

What was measured:
porcine skin = test: Separation of epidermis and dermis of porcine skin by salt incubation; conditions: 1 molar, 48 hours
human cadaver skin = test: Removal of epidermis/keratinocytes from human cadaver skin by enzyme or salt incubation
Text: Alternatively, enzymes may be used to accomplish decellularization, including but not limited to dispase II, trypsin, and thermolysin. These enzymes react with different components of collagen and intercellular connections in achieving their effects. Dispase II attacks Type IV collagen, which is a component of the lamina densa and anchoring fibrils of the basement membrane. Thermolysin attacks the bulbous phemphigoid antigen in the hemidesmosome of the basal layer of keratinocytes. Trypsin attacks the desmosome complex between cells. Due to the proteolytic nature of these enzymes, care must be taken that cellular removal occurs without significant damage to the extracellular matrix, including the basement membrane complex. This is a function of concentration, time and temperature. If used for too long a time or at too high a concentration, dispase II for example can completely remove the basement membrane complex from the dermis.

Row | Molecule | separation of the epidermis and dermis (porcine skin) | separation of the epidermis and dermis (human cadaver skin; 1 molar, 16 hours, human skin) | removal of keratinocytes (human cadaver skin; 200 ug/ml, 30 minutes, 4° C., human cadaver skin)
1 | [Cl-].[Na+] [sodium chloride] | clean separation of the epidermis and dermis without damage to the basement membrane complex | clean separation of the epidermis and dermis without damage to the basement membrane complex | –
2 | B1 | – | – | essentially remove all keratinocytes

From patent publication US20030035843A1, “Method for processing and preserving collagen-based tissues for transplantation” (LifeCell Corporation, a Delaware corporation, priority 1990, published 2003)
